Results taken from US20150159222A1, “MARKERS ASSOCIATED WITH HUMAN DOUBLE MINUTE 2 INHIBITORS” (NOVARTIS AG, priority 2012, published 2015).

Assays:
[1] = tested on: p53 wild-type (SJSA-1 and HCT116 p53wt/wt cells) and p53 mutant cell lines (SAOS2 and HCT116 p53-/- cells); experiment: Cell proliferation inhibition assay (YOPRO); assay type: cell-based; conditions: 72 hours; p53 wild-type vs p53 mutant cell lines
Procedure: Lucern, Switzerland). Briefly, cells are plated in 96-well plates overnight at 37° C. and are treated with increasing concentrations of MDM2i(1) or MDM2i(2) for 72 hours. Cell concentration in each well is then determined using the DNA-interacting fluorescent dye YOPRO according to the manufacturer's instructions and the fluorescent signal is measured using a Gemini-EM standard plate reader (Molecular Devices: Sunnyvale, Calif., USA).

[2] = tested on: CCLE cell lines; experiment: Chemical sensitivity of the CCLE cell line panel; assay type: cell-based
Procedure: […]. The cell line panel is the one covered by the Cancer Cell Line Encyclopedia (CCLE) initiative (Barretina J., Caponigro G., Stransky N., Venkatesan K., et al. The Cancer Cell Line Encyclopedia enables predictive modeling of anticancer drug sensitivity. Nature 483:603-7, 2012). A detailed genomic, genetic and pharmacologic characterization was conducted on the CCLE cell lines.
p53 mutation status in CCLE cell lines is taken from a data source of gene-level genetic alterations, for example, point-mutations, insertions, deletions and complex genetic alterations, compiled from the Sanger center COSMIC data and internal sources including Exome Capture Sequencing. This comprises data from approximately 1,600 cancer-related genes over the CCLE cell lines.
[…]. […] From such in vitro chemical sensitivity data, the prediction that a cell would be sensitive to an MDM2i treatment was estimated to be 13%. […].

[3] = tested on: SJSA-1 osteosarcoma cells; experiment: SJSA-1 xenograft tumor growth; assay type: in vivo, Harlan nude mice; conditions: for T/C: 10-day treatment
Procedure: To further validate the predictive biomarkers disclosed in FIG. 3, in vivo human xenograft models either from human primary samples or from cell lines were directly injected and grown in tumors subcutaneously in mice and then assessed for MDM2i sensitivity. All the animals were allowed to adapt for 4 days and housed in a pathogen-controlled environment (5 mice/Type III cage) with access to food and water ad libitum. Animals were identified with transponders. Studies were performed according to procedures covered by permit number 1975 issued by the Kantonales Veterinaramt Basel-Stadt and strictly adhered to the Eidgenössisches Tierschutzgesetz and the Eidgenössische Tierschutzverordnung. Subcutaneous tumors were induced by concentrating 3.0×10^6 SJSA-1 osteosarcoma cells in 100 μl of PBS (without Ca^2+ and Mg^2+) and injecting in the right flank of Harlan nude mice. The administration of MDM2i began 12-14 days post cell injection. MDM2i was prepared immediately before each administration. MDM2i compounds were dissolved in 0.5% HPMC (hydroxypropylmethylcellulose) and were injected daily (q24h) at 25, 50 or 100 mg/kg. Tumor volumes (TVol), determined from caliper measurements (using the formula l×w×h×π/6) were measured three times per week. Tumor response was quantified by the change in tumor volume (endpoint minus starting value in mm^3) as the T/C, i.e.
In the case of a tumor regression, the tumor response was quantified by the percentage of regression of the starting TVoI, i.e.
The body-weight (BW) of the mice was measured three times per week allowing calculation at any particular time-point relative to the day of initiation of treatment (day 0) of both the percentage change in BW (Δ % BW). […].

[4] = tested on: p21(CDKN1A); experiment: p21(CDKN1A) protein in SJSA-1 xenograft tumors (immunohistochemistry); assay type: in vivo, Harlan nude mice
Procedure: SJSA-1 xenograft tumors were collected and a 3-4 mm slice out of the middle of the tumor was removed, transferred into pre-labelled histo-cassettes and immersion-fixed in neutral buffered formalin (NBF) 10% (v/v) (pH 6.8-7.2) (J. T. Baker, Winter Garden, Fla., USA), pre-cooled at 4° C. Tumors were then fixed at room temperature for 24 hours, followed by processing in the TPC 15Duo (Tissue Processing Center, Medite) for paraffinization. Subsequently, the tumor slices were embedded in paraffin and from each paraffin block several 3 μm thick sections were cut on a rotary microtome (Mikrom International AG, Switzerland), spread in a 48° C. water-bath, mounted on glass slides (SuperFrost Plus, Thermo Scientific:Waltham Mass., USA), and dried in an oven either at 37° C. overnight or at 60° C. for 30 min. Dry tissue section were processed for immunohistochemistry (IHC) staining. p21(CDKN1A) immunohistochemistry has been performed using the mouse monoclonal antibody clone SX118 from Dako (Cat. No. M7202 Dako: Carpenteria Calif., USA) at a dilution of 1:50. Immunohistochemistry has been performed on a Ventana Discovery XT automated immunostainer using the N-Histofine Mousestain Kit (Nichirei Bioscience Inc, Japan) in combination with the DABMap Kit chromogen system, omitting the SA-HRP solution (Ventana/Roche Diagnostics GmbH, Mannheim, Germany). […]

[5] = tested on: C3A cells; experiment: Western blot of p53 pathway proteins in C3A cells; assay type: cell-based; conditions: 4 hours
Procedure: (§1) That the biomarkers in Table 2/FIG. 3 are reflective of a functional p53 pathway in MDM2i sensitive cells is verified in FIG. 4. […]. Whole cell lysates were prepared using a cell lysis buffer containing 50 mM Tris-HCl pH 7.5, 120 mM NaCl, 1 mM EDTA, 6 mM EGTA pH 8.5, 1% NP-40, 20 mM NaF, 1 mM PMSF and 0.5 mM Na-Vanadat, proteins were separated on NuPAGE 4-12% Bis-Tris Gel (Invitrogen # NP0322BOX, Lucerne; Switzerland), transferred onto Nitrocellulose Protran® BA 85 membranes (Whatman #10 401 261: Piscataway, N.J., USA) at 1.5 mA/cm^2 membrane for 2 h using a semi-dry blotting system, and immunoblotted with either an anti-phospho-p53 (Ser^15) (1/1000; Cell Signaling Technology #9284: Beverly, Mass., USA) rabbit polyclonal antibody, or an anti-p53 (Ab-6) (Pantropic, clone DO-1,) (1/1000; Calbiochem # OP43 San Diego, Calif., USA), an anti-MDM2 (Ab-1, clone IF2) (1/1000; Calbiochem # OP46), an anti-p21^WAF1(Ab-1, clone EA10) (1/500; Calbiochem # OP64: San Diego, Calif., USA) or an anti-a-Tubulin (Sigma # T5168: St. Louis, Mo., USA) mouse monoclonal antibodies, as indicated. […].

[6] = tested on: p21(CDKN1A); experiment: p21(CDKN1A) mRNA in SJSA-1 xenograft tumors (qRT-PCR); assay type: in vivo, Harlan nude mice
Procedure: Briefly, total RNA was purified from cell pellets using the QIAshredder® (79654, Qiagen:Valencia Calif., USA) and RNeasy Mini Kit® (74106, Qiagen: Valencia Calif., USA) according to the manufacturer's instructions, with the exception that no DNA digestion was performed. Total RNA was eluted with 50 μL of RNase-free water. Total RNA was quantitated using the spectrophotometer ND-1000 Nanodrop® (Wilmington Del., USA). The qRT-PCR (Quantitative Reverse Transcriptase Polymerase Chain Reaction) was set up in triplicate per sample using the One-Step RT qPCR Master Mix Plus (RT-QPRT-032X, Eurogentec: Seraing, Belgium), with either control primers and primers for human p21(CDKN1A) (Hs00355782_m1, Applied Biosystems: Carlsbad Calif., USA) or mouse p21(CDKN1A) (Mm00432448_m1, Applied Biosystems: Carlsbad Calif., USA), namely TaqMan Gene Expression kit assays (20× probe dye FAM™ (or VIC)-TAMRA (or MGB); Applied Biosystems: Carlsbad Calif., USA). […] The number of cycles (CT) was determined, 2^−CT values were calculated, and the value normalized by dividing with the 2^−CT value obtained from the GAPDH control. Fold increase over control (i.e. DMSO- or vehicle-treated animals) was calculated and plotted in the bar graph.

[7] = tested on: COLO 792 cells; experiment: Western blot of p53 pathway proteins in COLO 792 cells; assay type: cell-based; conditions: 4 hours
Procedure: as §1

[8] = tested on: mouse normal fibroblasts; conditions: cited from earlier work
[9] = tested on: human normal fibroblasts; conditions: cited from earlier work
[10] = tested on: SJSA-1 cell line; conditions: SJSA-1 xenografts in mouse; cited from earlier work
[11] = tested on: SJSA-1 osteosarcoma line; conditions: SJSA-1, amplified copies of the MDM2 gene; cited from earlier work
[12] = C3A cells, increasing concentrations
[13] = COLO 792 cells, increasing concentrations

SMILES | tumor cell proliferation [1] | number of insensitive cell lines ([2]; CCLE panel) | number of sensitive cell lines ([2]; CCLE panel) | sensitivity of p53 mutated cell lines ([2]; p53 mutated CCLE cell lines) | sensitivity of p53 wild type cell lines ([2]; p53 wild type CCLE cell lines) | T/C ([3]; 25 mg/kg q24h) [%] | T/C ([3]; 50 mg/kg q24h) [%] | tumor regression ([3]; 100 mg/kg q24h for 10 days) [%] | p21(CDKN1A) protein levels in tumors [4] | p53 protein levels [5, 12] | phospho-p53 [5, 12] | expression of p53 target genes p21(CDKN1A) and MDM2 ([5]; C3A sensitive cells) | p21(CDKN1A) mRNA levels in tumors [6] | p53 protein levels [7, 13] | phospho-p53 [7, 13] | expression of p53 target genes p21(CDKN1A) and MDM2 ([7]; COLO-792 insensitive cell line) | proliferation and viability of non-cancerous cells [8] | proliferation and viability of non-cancerous cells [9] | reduction of xenograft growth [10] [%] | proliferation and apoptosis [11]
COc1cc2c(cc1OC(C)C)[C@H](c1ccc(Cl)cc1)N(c1ccc(N(C)C[C@H]3CC[C@H](N4CCNC(=O)C4)CC3)cc1)C(=O)C2 [MDM2i(2)] | hampering tumor cell proliferation in a p53-dependent manner | 309 | 47 | majority of p53 mutated cell lines are found insensitive | more than two-third of p53 wild type cell lines are sensitive |  |  |  |  |  |  |  |  |  |  |  |  |  |  | 
COc1cc2c(cc1OC(C)C)[C@H](c1ccc(Cl)cc1)N(c1ccc(N(C)C[C@H]3CC[C@H](N4CCN(C)C(=O)C4)CC3)cc1)C(=O)C2 [MDM2i(1)] | hampering tumor cell proliferation in a p53-dependent manner |  |  |  |  | 50 | 3 | 65 | significant dose-dependent induction of p21(CDKN1A) protein levels in tumors | induces stabilization of p53 protein levels | no significant increase of phospho-p53 | induces a strong de novo expression of both p53 target genes p21(CDKN1A) and MDM2 | significant dose-dependent induction of p21(CDKN1A) mRNA levels in tumors | induces stabilization of p53 protein levels | no significant increase of phospho-p53 | not in COLO-792 insensitive cell line |  |  |  | 
COc1ccc(C2=N[C@@H](c3ccc(Cl)cc3)[C@@H](c3ccc(Cl)cc3)N2C(=O)N2CCNC(=O)C2)c(OC(C)C)c1 [Nutlin-3] |  |  |  |  |  |  |  |  |  |  |  |  |  |  |  |  | the proliferation of the cells was slowed, they retained their viability | the proliferation of the cells was slowed, they retained their viability | 90 | reduced proliferation and increased apoptosis
